Assay type in all cases: cell-based, human
The subject of one experiment is Pak1. The experiment in a line: Pak1 kinase activity in cell lysates. The conditions noted are these: Ishikawa cells. The source says: FIGS. 20A–20L—Pak1 activation confers tamoxifen-resistance. FIG. 20A: Pak1 activation promoted ER-transactivation function.
The next experiment deals with DLC1. The experiment in a line: DLC1 protein and mRNA expression. The conditions noted are these: MCF-7/TAMR1 and Ishikawa cells, 24 h.
The subject of another experiment is DLC1 promoter. The experiment in a line: DLC1 promoter luciferase reporter. The conditions noted are these: Ishikawa cells, 24 h. The procedure: FIGS. 21A–21J—Estrogenic signals upregulate DLC1 expression via Pak1 pathway. FIG. 21A: DLC1 upregulation by E2 or Tam. MCF-7/Tam-sen, MCF-7/TAMR1 and Ishikawa cells were treated with E2 (10^−9M) or Tam (10^−9M) for 24 h, and cell lysates were assayed for DLC1 and Pak1 protein expression. FIG. 21B: Upregulation of DLC1 mRNA in MCF-7 cells treated with different doses of E2 for 24 h. FIG. 21C: Effect of different periods of E2 treatment and cycloheximide (CHX) and Actinomycin D (ACTD) treatment on the ability of E2 to upregulate DLC1 mRNA in MCF-7 cells. FIG. 21D: DLC1 mRNA and protein levels in MCF-7/DA-Pak1 cells by Northern and Western blotting. FIG. 21E: DLC1 mRNA and protein levels in MCF-7/DN-Pak1 cells by Northern and Western blotting. FIG. 21F: Downregulation of DLC1 protein expression in MCF-7 cells treated with Pak1-siRNA for 24 h. FIG. 21G: Modulation of DLC1 promoter (1245 bp) luc activity by the expression of wtPak1 or DN-Pak1. MCF-7 cells were transfected with DLC1-luc and transfected with either wtPak1 or Pak1 inhibitor 83-149 and luc activity was measured after 24 h. FIG. 21H: Upregulation of DLC1 promoter luc activity following pak1 induction in MCF-7/DA-Pak 1 cells. FIG. 21I: Downegulation of DLC1 promoter luc activity in MCF-7/DN-pak1 cells. […]

Experiment [1] relates to Ishikawa and MCF-7/TAMR1 cells. The experiment in a line: Growth of Tam-resistant cells (cell number). The protocol: FIGS. 22A–22F—DLC1 deregulation potentiates ligand-induced growth and anchorage-independence. FIG. 22A: DLC1 upregulation potentiates growth stimulation by E2 in a Tam-insensitive manner. MCF-7/DLC1 cells were treated with or without Dox and then with E2 (10^−9M) or Tam (10^−8M) for 5 days, and the cell number was determined. FIG. 22B: DLC1 upregulation promotes anchorage independence. […] FIG. 22C: DLC1 expression supports optimum growth of Tam-resistant cells. Ishikawa and MCF-7/TAMR1 cells were transfected with control or DLC siRNA for 48 h and then treated with or without Tam (10^−8M) for 96 h, and the cell number was determined. FIG. 22D: DLC1-mediated potentiation of ER transactivation depends on the Pak1 status in Ishikawa and MCF-7/TAMR1 cell lines. Ishikawa and MCF-7/TAMR1 cells were transfected with control or Pak1 siRNA for 48 h and then with ERE-luc for 24 h and treated with E2 (10^−9M) for 24 h and ERE-luc activity was measured. FIG. 22E: Pak1 expression level influences the growth of Tam resistant cells. Ishikawa and MCF-7/TAMR1 cells were treated with control or Pak1 siRNA for 48 h and treated with or without Tam (10^−8M) for 4 days, and cell number was determined. FIG. 22F: Co-downregulation of Pak1 and DLC1 in Tam-resistant cells restores Tam-sensitivity. […]

The text below walks through data of US7067633B2, “Targeting cellular entry, cell survival, and pathogenicity by dynein light chain 1/PIN in human cells” (Board of Regents, The University of Texas System, priority 2003, dated 2006).

For `CC/C(=C(\c1ccccc1)c1ccc(OCCN(C)C)cc1)c1ccccc1` [tamoxifen], the Pak1 kinase activity result in the experiment with Pak1 is recorded as “upregulated”. The “expression of the DLC1 protein” value in the experiment on DLC1 is given as “robustly upregulated”. Also, in the experiment with DLC1 promoter, the DLC1 promoter activity result is listed as “stimulated”. Moreover, in experiment [1] (Tam 96 h), the “growth of cells with downregulated DLC” value is listed as “further reduced the growth”. Moreover, the “growth of cells with downregulated Pak1” value in experiment [1] (Tam 4 days) was “no further significant effect”.
